Reference: DBAASP
≈ marks a conversion by molar mass, not a printed value.

Assays:
Assay in all cases: ≥ marks a high value that may be exact or a test limit, other limits are often not marked, values filed in µg/mL are converted to µM
[1] = system: Escherichia coli ATCC 25922
[2] = system: Pseudomonas aeruginosa ATCC 27853
[3] = system: Staphylococcus aureus ATCC 25923

Row | Structure (SMILES) | MIC [1] [µM] | MIC [2] [µM] | MIC [3] [µM]
1 | CC(C)C[C@H](NC(=O)[C@H](Cc1ccccc1)NC(=O)[C@@H]1CCCN1C(=O)[C@H](Cc1c[nH]c2ccccc12)NC(=O)[C@H](C)NC(=O)[C@H](Cc1c[nH]c2ccccc12)NC(=O)[C@@H]1CCCN1C(=O)[C@H](Cc1ccccc1)NC(=O)[C@H](CCCN=C(N)N)NC(=O)[C@H](CCCN=C(N)N)NC(=O)[C@@H](N)C(C)C)C(=O)N[C@@H](CCCN=C(N)N)C(=O)N[C@@H](CCCN=C(N)N)C(N)=O [VRRFPWAWPFLRR] | 16 (≈ 28.6 µg/mL) | – | –
2 | CC[C@H](C)[C@H](NC(=O)[C@H](Cc1ccc(O)cc1)NC(=O)[C@H](CCC(N)=O)NC(=O)[C@H](CC(C)C)NC(=O)[C@H](C)N)C(=O)N[C@@H](CCCCN)C(=O)N[C@@H](CC(C)C)C(=O)N[C@@H](CC(C)C)C(=O)N[C@@H](CCCCN)C(=O)N[C@@H](CCC(=O)O)C(N)=O [ALQYIKLLKE] | > 100 | > 100 | –
3 | CC(C)[C@H](NC(=O)[C@H](Cc1ccc(O)cc1)NC(=O)[C@H](CO)NC(=O)[C@H](CCCCN)NC(=O)[C@@H](N)CCCCN)C(=O)N[C@@H](CCCN=C(N)N)C(=O)N[C@@H](CCCN=C(N)N)C(=O)N[C@@H](Cc1c[nH]c2ccccc12)C(=O)N[C@@H](CCCN=C(N)N)C(=O)N[C@@H](CO)C(N)=O [KKSYVRRWRS] | > 100 | > 100 | > 100
4 | CC[C@H](C)[C@H](NC(=O)CNC(=O)[C@H](CCC(N)=O)NC(=O)CNC(=O)[C@H](Cc1c[nH]c2ccccc12)NC(=O)[C@H](CCCCN)NC(=O)[C@H](CCC(=O)O)NC(=O)[C@@H](NC(=O)[C@H](CCCCN)NC(=O)[C@H](CCCCN)NC(=O)[C@H](Cc1c[nH]c2ccccc12)NC(=O)[C@H](CC(C)C)NC(=O)[C@H](CCCCN)NC(=O)[C@H](Cc1c[nH]c2ccccc12)NC(=O)[C@@H](N)CCCCN)[C@@H](C)CC)C(=O)NCC(=O)N[C@@H](C)C(=O)N[C@H](C(=O)N[C@@H](CC(C)C)C(=O)N[C@@H](CCCCN)C(=O)N[C@@H](Cc1c[nH]c2ccccc12)C(=O)N[C@@H](CC(C)C)C(=O)N[C@H](C(=O)N[C@H](C(=O)N[C@@H](Cc1c[nH]c2ccccc12)C(=O)N[C@@H](CC(C)C)C(=O)O)[C@@H](C)O)[C@@H](C)O)C(C)C [KWKLWKKIEKWGQGIGAVLKWLTTWL] | – | 32 (≈ 102 µg/mL) | –
5 | CC(C)C[C@H](NC(=O)CN)C(=O)N[C@@H](Cc1ccccc1)C(=O)N[C@@H](CC(=O)O)C(=O)N[C@H](C(=O)N[C@H](C(=O)N[C@@H](CCCCN)C(=O)NCC(=O)N[C@H](C(=O)N[C@@H](CC(C)C)C(=O)N[C@@H](CCCCN)C(=O)NCC(=O)N[C@@H](C)C(=O)NCC(=O)N[C@@H](CCCCN)C(=O)N[C@@H](CC(N)=O)C(=O)N[C@H](C(=O)N[C@@H](C)C(=O)NCC(=O)N[C@@H](CO)C(=O)N[C@@H](CC(C)C)C(=O)N[C@@H](CC(C)C)C(=O)N[C@@H](CCC(=O)O)C(=O)N[C@@H](CCC(N)=O)C(=O)N[C@@H](CC(C)C)C(=O)N[C@@H](CCCCN)C(=O)N[C@H]1CSSC[C@@H](C(=O)O)NC(=O)CNC(=O)CNC(=O)[C@H](CO)NC(=O)[C@H](CC(C)C)NC(=O)[C@H](CCCCN)NC1=O)C(C)C)C(C)C)C(C)C)C(C)C [GLFDVVKGVLKGAGKNVAGSLLEQLKCKLSGGC] | 30 (≈ 98.6 µg/mL) | – | 30 (≈ 98.6 µg/mL)
6 | CC[C@H](C)[C@H](NC(=O)[C@@H](NC(=O)[C@H](CC(N)=O)NC(=O)[C@H](CC(C)C)NC(=O)[C@H](CC(C)C)NC(=O)CN)C(C)C)C(=O)N[C@@H](CCCCN)C(=O)N[C@@H](CC(=O)O)C(=O)N[C@H](C(=O)N[C@@H](C)C(=O)N[C@@H](CCC(N)=O)C(=O)N[C@@H](CC(N)=O)C(=O)N[C@@H](CC(C)C)C(=O)N[C@@H](Cc1ccccc1)C(=O)N[C@@H](C)C(=O)N[C@@H](C)C(=O)N[C@@H](C)C(=O)N[C@@H](CC(C)C)C(=O)N[C@@H](CC(=O)O)C(=O)N[C@@H](CCCCN)C(=O)N[C@@H](CC(C)C)C(=O)N[C@@H](CCCCN)C(=O)N[C@H]1CSSC[C@@H](C(=O)N[C@@H](CC(N)=O)C(=O)O)NC(=O)[C@H](CCCCN)NC(=O)[C@H]([C@@H](C)O)NC(=O)[C@H](C(C)C)NC(=O)[C@H](CCCCN)NC1=O)[C@@H](C)O [GLLNVIKDTAQNLFAAALDKLKCKVTKCN] | 80 (≈ 251 µg/mL) | – | > 160
7 | CC(C)[C@H](NC(=O)[C@H](Cc1ccc(O)cc1)NC(=O)[C@H](CO)NC(=O)[C@H](CCCCN)NC(=O)[C@@H](N)Cc1c[nH]c2ccccc12)C(=O)N[C@@H](CCCN=C(N)N)C(=O)N[C@@H](CCCN=C(N)N)C(=O)N[C@@H](Cc1c[nH]c2ccccc12)C(N)=O [WKSYVRRW] | 64 (≈ 75.5 µg/mL) | > 100 | 100 (≈ 118 µg/mL)
8 | CC[C@H](C)[C@H](NC(=O)[C@@H](NC(=O)[C@H](CCCCN)NC(=O)[C@H](CC(C)C)NC(=O)[C@H](CC(C)C)NC(=O)[C@@H](N)CCCCN)C(C)C)C(=O)N[C@@H](CCCCN)C(=O)N[C@@H](CCCCN)C(=O)N[C@@H](CC(C)C)C(=O)N[C@@H](CC(C)C)C(N)=O [KLLKVIKKLL] | 5.02 (≈ 6 µg/mL) | – | 7.53 (≈ 8.99 µg/mL)
9 | CC(C)C[C@H](NC(=O)[C@H](C)NC(=O)[C@@H](N)CO)C(=O)N[C@H](C(=O)NCC(=O)N[C@H]1CSSC[C@@H](C(=O)N[C@@H](Cc2ccccc2)C(=O)NCC(=O)N[C@@H](CCCN=C(N)N)C(=O)O)NC(=O)[C@@H]2CCCN2C(=O)[C@H](CCCCN)NC(=O)[C@@H]2CCCN2C(=O)[C@@H]2CCCN2C(=O)[C@H](Cc2c[nH]c3ccccc23)NC(=O)[C@H](CO)NC(=O)[C@H](CCCCN)NC(=O)[C@H]([C@@H](C)O)NC(=O)[C@H](Cc2c[nH]c3ccccc23)NC1=O)C(C)C [SALVGCWTKSWPPKPCFGR] | 23.6 (≈ 50 µg/mL) | – | 11.8 (≈ 25 µg/mL)
10 | CC[C@H](C)[C@H](NC(=O)[C@H](CCCN=C(N)N)NC(=O)[C@H](CCCCN)NC(=O)[C@@H](N)CC(C)C)C(=O)N[C@@H](CCCCN)C(=O)N[C@H](C(=O)N[C@@H](CC(C)C)C(=O)N[C@@H](CC(C)C)C(N)=O)[C@@H](C)O [LKRIKTLL] | > 31.5 | – | > 31.5
11 | CC[C@H](C)[C@H](NC(=O)[C@H](CCC(N)=O)NC(=O)[C@H](CCCCN)NC(=O)[C@@H](NC(=O)[C@H](CC(C)C)NC(=O)[C@H](CCC(N)=O)NC(=O)[C@H](C)NC(=O)[C@H](Cc1ccccc1)NC(=O)[C@@H](NC(=O)[C@H](CC(=O)O)NC(=O)[C@H](CCCCN)NC(=O)CNC(=O)[C@@H](NC(=O)CNC(=O)[C@@H](NC(=O)[C@@H](NC(=O)[C@H](Cc1ccccc1)NC(=O)[C@H](CC(=O)O)NC(=O)[C@H](CC(C)C)NC(=O)[C@H](CC(C)C)NC(=O)CN)C(C)C)[C@@H](C)O)C(C)C)[C@@H](C)CC)[C@@H](C)CC)C(N)=O [GLLDFVTGVGKDIFAQLIKQI] | 64 (≈ 146 µg/mL) | – | 64 (≈ 146 µg/mL)
12 | CC(C)C[C@H](NC(=O)[C@H](C)NC(=O)[C@@H](N)CO)C(=O)N[C@H](C(=O)NCC(=O)N[C@H]1CSSC[C@@H](C(=O)N[C@@H](Cc2ccccc2)C(=O)NCC(=O)N[C@@H](CCCN=C(N)N)C(=O)NCC(=O)O)NC(=O)[C@@H]2CCCN2C(=O)[C@H](CCCCN)NC(=O)[C@@H]2CCCN2C(=O)[C@@H]2CCCN2C(=O)[C@H](Cc2c[nH]c3ccccc23)NC(=O)[C@H](CO)NC(=O)[C@H](CCCCN)NC(=O)[C@H]([C@@H](C)O)NC(=O)[C@H](Cc2c[nH]c3ccccc23)NC1=O)C(C)C [SALVGCWTKSWPPKPCFGRG] | – | – | 23 (≈ 50 µg/mL)
13 | CC[C@H](C)[C@H](NC(=O)[C@@H](NC(=O)[C@H](CCCCN)NC(=O)[C@H](CC(C)C)NC(=O)[C@H](CC(C)C)NC(=O)CN)C(C)C)C(=O)N[C@@H](CCCCN)C(=O)N[C@H](C(=O)N[C@@H](CC(C)C)C(=O)N[C@@H](CC(C)C)C(N)=O)C(C)C [GLLKVIKVLL] | 25.6 (≈ 28 µg/mL) | – | 12.8 (≈ 14 µg/mL)
